Data from the NIST ThermoML archive (doi:10.1021/acs.jced.9b00171).

Columns and labels:
[1] = wn = mass fraction of the nth substance listed; conditions: 101.3 kPa, Liquid, Oscillating disk viscometry
[2] = refractive index (Na D-line) (dimensionless); wn = mass fraction of the nth substance listed; conditions: 101.3 kPa, Liquid, Standard Abbe refractometry

CNCCO [2-(methylamino)ethanol] + O
Conditions | refractive index, [2] | viscosity, [1] [mPa·s]
293.15 K, w1 = 0.05 | 1.3421 | 1.31
293.15 K, w1 = 0.1 | 1.3452 | 1.68
293.15 K, w1 = 0.15 | 1.3484 | 2.38
293.15 K, w1 = 0.2 | 1.3522 | 2.66
293.15 K, w1 = 0.25 | 1.3568 | 3.4
293.15 K, w1 = 0.3 | 1.3624 | 4.22
298.15 K, w1 = 0.05 | 1.3414 | 1.1
298.15 K, w1 = 0.1 | 1.3444 | 1.42
298.15 K, w1 = 0.15 | 1.3476 | 2.02
298.15 K, w1 = 0.2 | 1.3513 | 2.17
298.15 K, w1 = 0.25 | 1.3558 | 2.74
298.15 K, w1 = 0.3 | 1.3614 | 3.52
303.15 K, w1 = 0.05 | 1.3405 | 0.99
303.15 K, w1 = 0.1 | 1.3435 | 1.22
303.15 K, w1 = 0.15 | 1.3467 | 1.74
303.15 K, w1 = 0.2 | 1.3502 | 1.83
303.15 K, w1 = 0.25 | 1.3547 | 2.32
303.15 K, w1 = 0.3 | 1.3602 | 2.96
308.15 K, w1 = 0.05 | 1.3396 | 0.88
308.15 K, w1 = 0.1 | 1.3426 | 1.05
308.15 K, w1 = 0.15 | 1.3456 | 1.42
308.15 K, w1 = 0.2 | 1.349 | 1.52
308.15 K, w1 = 0.25 | 1.3534 | 1.96
308.15 K, w1 = 0.3 | 1.3588 | 2.52
313.15 K, w1 = 0.05 | 1.3386 | 0.79
313.15 K, w1 = 0.1 | 1.3416 | 0.94
313.15 K, w1 = 0.15 | 1.3445 | 1.22
313.15 K, w1 = 0.2 | 1.3478 | 1.32
313.15 K, w1 = 0.25 | 1.352 | 1.71
313.15 K, w1 = 0.3 | 1.3573 | 2.2
318.15 K, w1 = 0.05 | 1.3375 | 0.72
318.15 K, w1 = 0.1 | 1.3405 | 0.84
318.15 K, w1 = 0.15 | 1.3434 | 1.04
318.15 K, w1 = 0.2 | 1.3465 | 1.19
318.15 K, w1 = 0.25 | 1.3505 | 1.49
318.15 K, w1 = 0.3 | 1.3558 | 1.92
323.15 K, w1 = 0.05 | 1.3364 | 0.65
323.15 K, w1 = 0.1 | 1.3394 | 0.75
323.15 K, w1 = 0.15 | 1.3421 | 0.93
323.15 K, w1 = 0.2 | 1.3451 | 1.06
323.15 K, w1 = 0.25 | 1.349 | 1.29
323.15 K, w1 = 0.3 | 1.3542 | 1.65
328.15 K, w1 = 0.05 | 1.3352 | 0.58
328.15 K, w1 = 0.1 | 1.3381 | 0.67
328.15 K, w1 = 0.15 | 1.3406 | 0.83
328.15 K, w1 = 0.2 | 1.3436 | 0.94
328.15 K, w1 = 0.25 | 1.3474 | 1.12
328.15 K, w1 = 0.3 | 1.3524 | 1.41
333.15 K, w1 = 0.05 | 1.334 | 0.52
333.15 K, w1 = 0.1 | 1.3368 | 0.6
333.15 K, w1 = 0.15 | 1.3391 | 0.74
333.15 K, w1 = 0.2 | 1.342 | 0.83
333.15 K, w1 = 0.25 | 1.3456 | 0.99
333.15 K, w1 = 0.3 | 1.3504 | 1.2

NCCNCCO [N-(2-aminoethyl)ethanolamine] + O
Conditions | refractive index, [2] | viscosity, [1] [mPa·s]
293.15 K, w1 = 0.05 | 1.3406 | 1.2
293.15 K, w1 = 0.1 | 1.3452 | 1.6
293.15 K, w1 = 0.15 | 1.351 | 2.02
293.15 K, w1 = 0.2 | 1.3582 | 2.58
293.15 K, w1 = 0.25 | 1.366 | 3.47
293.15 K, w1 = 0.3 | 1.3752 | 4.73
298.15 K, w1 = 0.05 | 1.3401 | 1.11
298.15 K, w1 = 0.1 | 1.3446 | 1.36
298.15 K, w1 = 0.15 | 1.3504 | 1.74
298.15 K, w1 = 0.2 | 1.3575 | 2.22
298.15 K, w1 = 0.25 | 1.3652 | 2.98
298.15 K, w1 = 0.3 | 1.3744 | 3.95
303.15 K, w1 = 0.05 | 1.3394 | 0.95
303.15 K, w1 = 0.1 | 1.3438 | 1.18
303.15 K, w1 = 0.15 | 1.3496 | 1.48
303.15 K, w1 = 0.2 | 1.3567 | 1.89
303.15 K, w1 = 0.25 | 1.3643 | 2.37
303.15 K, w1 = 0.3 | 1.3735 | 3.32
308.15 K, w1 = 0.05 | 1.3387 | 0.85
308.15 K, w1 = 0.1 | 1.343 | 1.06
308.15 K, w1 = 0.15 | 1.3487 | 1.32
308.15 K, w1 = 0.2 | 1.3558 | 1.63
308.15 K, w1 = 0.25 | 1.3633 | 2.08
308.15 K, w1 = 0.3 | 1.3724 | 2.61
313.15 K, w1 = 0.05 | 1.3378 | 0.76
313.15 K, w1 = 0.1 | 1.3421 | 0.94
313.15 K, w1 = 0.15 | 1.3476 | 1.17
313.15 K, w1 = 0.2 | 1.3548 | 1.41
313.15 K, w1 = 0.25 | 1.3622 | 1.76
313.15 K, w1 = 0.3 | 1.3712 | 2.19
318.15 K, w1 = 0.05 | 1.3368 | 0.69
318.15 K, w1 = 0.1 | 1.341 | 0.84
318.15 K, w1 = 0.15 | 1.3464 | 1.03
318.15 K, w1 = 0.2 | 1.3536 | 1.24
318.15 K, w1 = 0.25 | 1.361 | 1.53
318.15 K, w1 = 0.3 | 1.3698 | 1.86
323.15 K, w1 = 0.05 | 1.3358 | 0.64
323.15 K, w1 = 0.1 | 1.3398 | 0.77
323.15 K, w1 = 0.15 | 1.3451 | 0.92
323.15 K, w1 = 0.2 | 1.3523 | 1.08
323.15 K, w1 = 0.25 | 1.3597 | 1.28
323.15 K, w1 = 0.3 | 1.3682 | 1.59
328.15 K, w1 = 0.05 | 1.3347 | 0.59
328.15 K, w1 = 0.1 | 1.3385 | 0.7
328.15 K, w1 = 0.15 | 1.3436 | 0.82
328.15 K, w1 = 0.2 | 1.3508 | 0.95
328.15 K, w1 = 0.25 | 1.3582 | 1.11
328.15 K, w1 = 0.3 | 1.3664 | 1.35
333.15 K, w1 = 0.05 | 1.3335 | 0.55
333.15 K, w1 = 0.1 | 1.3371 | 0.64
333.15 K, w1 = 0.15 | 1.342 | 0.74
333.15 K, w1 = 0.2 | 1.3491 | 0.87
333.15 K, w1 = 0.25 | 1.3566 | 1.02
333.15 K, w1 = 0.3 | 1.3648 | 1.2
